Test results from patent US6355428B1, “Nucleic acid ligand interaction assays” (Genelabs Technologies, Inc., priority 1998, dated 2002).

Key:
[1] = system: A/T rich indicator duplex 5′-CTTTATTATTTT-3′ (SEQ ID NO: 2 and complement) versus competitor oligonucleotides; assay: Fluorescence quenching competition assay with unlabeled competitor duplexes; type: binding; details: for sequence preference from competitor oligos of Table III (FIG. 6): 0.4 μM drug, 0.4 μM unlabeled duplex competitor; for 5 bp A/T site bound most strongly / preferred (FIGS. 11, 12) / discrimination among 5 bp A/T binding sites (FIGS. 11, 12): 5 bp A+T site competitors, Table VI
From the text: Direct assays, as described above, are useful for first level screening of ligand-oligonucleotide binding, e.g. preference for DNA vs. RNA, or A/T vs. C/G rich sequences. In a “next-stage” assay, termed herein a competition or competitive assay, a binding oligonucleotide for a particular ligand, such as determined from direct assays, is used as an “indicator” for competitive studies, which give a further level of detail about ligand binding preferences. A competition experiment starts with first and second indicator oligonucleotides, as described above, containing, respectively, a first group effective to produce a detectable signal, and a second group effective to alter this signal. At the beginning of the assay, the ligand is bound to a duplex of the sequences. Again, experimental conditions of temperature, salt content, etc. are preferably adjusted such that, in the absence of the ligand, the oligonucleotides would exist primarily in single-stranded form. As noted above, the preferred temperature is somewhat higher than the Tm of the duplex (in the absence of ligand) under the conditions of the assay. If desired, for the sake of convenience, conditions may be adjusted so that the assay can be carried out at or near room temperature.
At the beginning of the assay, the indicator sequences form a duplex in the presence of the ligand, so fluorescence is at a minimum for the system. (When other detection systems are used, the signal observed will be that in which the first and second groups are in close proximity.) A “competitor” sequence, having no second (e.g. quenching) group, is then added, typically as a duplex with its complementary sequence. The competing sequence tends to remove the ligand from the indicator duplex at concentrations that become lower as the affinity of the competing sequence for the ligand becomes greater. Alternatively, the competing sequence removes the ligand more effectively at concentrations equimolar with the indicator duplex as the affinity of the competing sequence for the ligand becomes greater. As the ligand is removed, the indicator sequences denature to single-stranded form, quenching is no longer effective (in an F/Q system), and fluorescence increases.
Competition Assays: Competition experiments were generally done in […] HEPES, pH 7.5, 0.1 mM EDTA and 50 mM NaCl. The drug concentration used in the competition assays depends upon the affinity of the drug for a given indicator. For the competition experiments shown, the netropsin and distamycin concentrations used were 0.4 μM. The amount of competitor oligo used was varied from 0.2 μM to 1.0 μM. The data shown is from competition experiments using 0.4 μM unlabeled duplex competitors (see Tables III-VI for the sequences of the competitor oligos).
An unlabeled competitor duplex, selected from those whose sequences are given in Table […], was added at a 0.4 μM concentration, and the change in fluorescence was noted.
Changes in fluorescence of the indicator duplex/netropsin mixture on adding each competitor oligonucleotide are given in FIG. 12.

[2] = system: A/T rich, G/C rich and mixed sequence DNA oligonucleotides; assay: SPA direct binding assay, sequence preference over panel of indicator oligonucleotides
From the text: This technology can be applied to studies of ligand binding as disclosed herein. […] These beads are impregnated with scintillant. The second oligonucleotide is labeled with a weak β-emitter, such as ^3H or ^33P. The radioactive second oligonucleotide is mixed with a solution of the beads under conditions at which the first and second oligonucleotides exist primarily as single strands, as described above. The signal will thus be low, as the oligonucleotides are non-hybridized. When ligand is added, the duplex form is stabilized, and the increased proximity of the radioactive isotope (e.g., ^3H, ^33P) in the second oligonucleotide causes the bead to which the first oligonucleotide is bound to scintillate. A signal thus indicates the presence of an effective binding ligand molecule; test sequences giving higher signals indicate the relative preference for different sequences.
Indicator oligonucleotides as shown in Table 1 were used in this assay, as shown in Table II and FIGS. 4A-E. One strand of each duplex was labeled with biotin at the 5′-end, and the complementary strand was 3′-labeled with ^33P. The two complementary strands were incubated with streptavidin-coated SPA beads (Amersham, Arlington Heights, Ill.) at room temperature in a buffer containing 20 mM HEPES, pH 7.5, 0.1 mM EDTA, and 20 mM NaCl. In the absence of ligand, and under these conditions, the oligonucleotides exist in single-stranded conformation. As a result, the oligonucleotide containing the radioactive label is not in close proximity to the SPA bead, and the light given off by the beads is low, i.e., at background. As a duplex-stabilizing ligand is added, the radioactive ^33P is brought into close proximity to the SPA bead, and the light emitted from the SPA bead increases.

[3] = 5′-XAATTY-3′ competitor series, Table V

| preferred 5 bp binding site ([1]; concluded from 5′-XAATTY-3′ series) | SMILES | sequence preference from competitor oligos of Table III (FIG. 6) [1] | 5 bp A/T site bound most strongly / preferred (FIGS. 11, 12) [1] | discrimination among 5 bp A/T binding sites (FIGS. 11, 12) [1] | X and Y combinations that competed most effectively (FIG. 9) [1, 3] | sensitivity to bases at the edge of the AATT site (FIGS. 9 and 10) [1, 3] | sequence preference of binding (FIGS. 4A-E) ([2]; A/T rich 5′-AAAATAATAAAG, G/C rich 5′-GGCGCGG, mixed 5′-GTTGCAGATC, increasing drug) | duplex stabilization preference (Table II) ([2]; G/C-rich SEQ 6, A/T-rich SEQ 2, mixed SEQ 12 duplexes, 0, 100, 500 nM drug) |
| --- | --- | --- | --- | --- | --- | --- | --- | --- |
|  | Cn1cc(NC(=O)c2cc(NC(=O)CN=C(N)N)cn2C)cc1C(=O)NCCC(=N)N [Netropsin, netropsin] | strongly prefer A/T rich DNA | slight preference for the AAAAA site | considerably less discrimination |  |  |  |  |
| 5′-AATTA-3′ | Cn1cc(NC(=O)c2cc(NC(=O)c3cc(NC=O)cn3C)cn2C)cc1C(=O)NCCC(=N)N [Distamycin, distamycin] | strongly prefer A/T rich DNA | 5′-AATTA-3′ | relatively strong preferences | AA/TT, CA/TG, GA/TC, and TA/TA | much more sensitive | preference for A/T-rich and mixed sequences | preferentially stabilizes the A/T-rich duplex and the mixed duplex |
